Laboratory results: patent US11911361B2, “Stable cannabinoid formulations” (priority 2014, dated 2024)

What was measured:
U87 cells = test: Orthotopic mouse model of glioblastoma multiforme, U87 cells
[1] = tested on: minimal muscular or neurological impairment; test: Minimal motor impairment toxicity test (TOX), rats; assay type: in vivo; conditions: Anticonvulsant Screening
[2] = tested on: maximal electroshock-induced seizures; test: Maximal electroshock test (MES), rats; conditions: Anticonvulsant Screening
[3] = Pharmacokinetic food-effect study, single 20 mg/kg dose, healthy subjects (Example 17); conditions: for AUC / AUC(0-t) / AUC(0-inf) / Cmax / Tmax: human, in vivo, po, 20 mg/kg; for AUC: AUC0, cannabidiol; for Tmax: median (min, max)
Experimental: An open label, randomized, single-dose, two-period, two-way crossover food-effect study was conducted on healthy subjects. […] Twenty-four (24) subjects were enrolled in the study and each were subjected to the fasted and fed treatment arms in separate periods followed by a 7-day wash-out period. For pharmacokinetic analysis, nominal time and default lambda-z selections were used. All below quantifiable limit values were set to zero and all subjects were included in the analysis.
Data from 13 subjects from the fasted treatment and 24 subject from the fed treatment were included in the pharmacokinetic and statistical analyses.

[4] = tested on: Metrazol-induced clonic seizure; test: Subcutaneous Metrazol (sc Met) seizure test; conditions: for Sc MET N/F (animals protected/tested): mice; for ED50: Mus musculus, sc
[5] = dose 30, 1.0 h, ethanol:polyethoxylated castor oil:PBS
[6] = dose 30, 1.0 h, methylcellulose
[7] = dose 30, 2.0 h, ethanol:polyethoxylated castor oil:PBS
[8] = dose 30, 2.0 h, methylcellulose
[9] = dose 30, 4.0 h, ethanol:polyethoxylated castor oil:PBS
[10] = dose 30, 4.0 h, methylcellulose
[11] = dose 100, 1.0 h, ethanol:polyethoxylated castor oil:PBS
[12] = dose 100, 1.0 h, methylcellulose
[13] = dose 100, 2.0 h, ethanol:polyethoxylated castor oil:PBS
[14] = dose 100, 2.0 h, methylcellulose
[15] = dose 100, 4.0 h, ethanol:polyethoxylated castor oil:PBS
[16] = dose 100, 4.0 h, methylcellulose
[17] = cannabidiol, single 20 mg/kg oral dose of cannabidiol solution, fasted, mean
[18] = cannabidiol, single 20 mg/kg oral dose of cannabidiol solution, fed, mean

SMILES: C=C(C)[C@@H]1CCC(C)=C[C@H]1c1c(O)cc(CCCCC)cc1O [cannabidiol, (−)-trans-2-p-mentha-1,8-dien-3-yl-5-pentylresorcinol]
- glioblastoma multiforme progression (in words) (U87 cells; 15 mg/kg alone, intraperitoneal): did not inhibit glioblastoma multiforme progression
- effect on antitumor activity of temozolomide (in words) (U87 cells; 15 mg/kg with temozolomide 2 mg/kg, intraperitoneal): enhanced the antitumor activity of suboptimal doses of temozolomide leading to a significant increase in survival
- full regression of tumors (U87 cells; mouse, in vivo): 20%
- TOX N/F (minimal motor impairment) [1, 5]: 0/4
- TOX N/F (minimal motor impairment) [1, 6]: 0/4
- TOX N/F (minimal motor impairment) [1, 7]: 0/4
- TOX N/F (minimal motor impairment) [1, 8]: 0/4
- TOX N/F (minimal motor impairment) [1, 9]: 0/4
- TOX N/F (minimal motor impairment) [1, 10]: 0/4
- TOX N/F (minimal motor impairment) [1, 11]: 0/4
- TOX N/F (minimal motor impairment) [1, 12]: 0/4
- TOX N/F (minimal motor impairment) [1, 13]: 0/4
- TOX N/F (minimal motor impairment) [1, 14]: 0/4
- TOX N/F (minimal motor impairment) [1, 15]: 0/4
- TOX N/F (minimal motor impairment) [1, 16]: 0/4
- MES N/F (animals protected/tested) [2, 5]: 0/4
- MES N/F (animals protected/tested) [2, 6]: 0/4
- MES N/F (animals protected/tested) [2, 7]: 0/4
- MES N/F (animals protected/tested) [2, 8]: 0/4
- MES N/F (animals protected/tested) [2, 9]: 0/4
- MES N/F (animals protected/tested) [2, 10]: 0/4
- MES N/F (animals protected/tested) [2, 11]: 1/4
- MES N/F (animals protected/tested) [2, 12]: 0/4
- MES N/F (animals protected/tested) [2, 13]: 0/4
- MES N/F (animals protected/tested) [2, 14]: 0/4
- MES N/F (animals protected/tested) [2, 15]: 0/4
- MES N/F (animals protected/tested) [2, 16]: 0/4
- AUCextrap [3, 17]: 3.57%
- Clast [3, 17]: 0.867 ng/mL
- Tlast [3, 17]: 120.01 h
- λz [3, 17]: 0.0257 h⁻¹
- AUCextrap [3, 18]: 3.84%
- Clast [3, 18]: 6.36 ng/mL
- Tlast [3, 18]: 120.00 h
- λz [3, 18]: 0.0165 h⁻¹
- AUC ([3]; single 20 mg/kg oral, fasted, mean ± SD): 0.325 ± 1.17 ng·h/mL
- AUC ([3]; single 20 mg/kg oral, fed, mean ± SD): 0.229 ± 0.636 ng·h/mL
- AUC(0-t) ([3]; AUC0-0.25, cannabidiol, single 20 mg/kg oral, fasted, mean ± SD): 0.363 ± 1.31 ng·h/mL
- AUC(0-t) ([3]; AUC0-0.25, cannabidiol, single 20 mg/kg oral, fed, mean ± SD): 0.498 ± 0.874 ng·h/mL
- AUC(0-t) ([3]; AUC0-0.5, cannabidiol, single 20 mg/kg oral, fasted, mean ± SD): 0.584 ± 1.33 ng·h/mL
- AUC(0-t) ([3]; AUC0-0.5, cannabidiol, single 20 mg/kg oral, fed, mean ± SD): 2.45 ± 3.38 ng·h/mL
- AUC(0-t) ([3]; AUC0-0.75, cannabidiol, single 20 mg/kg oral, fasted, mean ± SD): 1.25 ± 1.34 ng·h/mL
- AUC(0-t) ([3]; AUC0-0.75, cannabidiol, single 20 mg/kg oral, fed, mean ± SD): 7.48 ± 11.2 ng·h/mL
- AUC(0-t) ([3]; AUC0-1, cannabidiol, single 20 mg/kg oral, fasted, mean ± SD): 1.93 ± 1.62 ng·h/mL
- AUC(0-t) ([3]; AUC0-1, cannabidiol, single 20 mg/kg oral, fed, mean ± SD): 21.8 ± 40 ng·h/mL
- AUC(0-t) ([3]; AUC0-1.5, cannabidiol, single 20 mg/kg oral, fasted, mean ± SD): 2.79 ± 2.14 ng·h/mL
- AUC(0-t) ([3]; AUC0-1.5, cannabidiol, single 20 mg/kg oral, fed, mean ± SD): 128 ± 215 ng·h/mL
- AUC(0-t) ([3]; AUC0-2, cannabidiol, single 20 mg/kg oral, fasted, mean ± SD): 4.14 ± 2.75 ng·h/mL
- AUC(0-t) ([3]; AUC0-2, cannabidiol, single 20 mg/kg oral, fed, mean ± SD): 269 ± 381 ng·h/mL
- AUC(0-t) ([3]; AUC0-2.5, cannabidiol, single 20 mg/kg oral, fasted, mean ± SD): 5.38 ± 4.09 ng·h/mL
- AUC(0-t) ([3]; AUC0-2.5, cannabidiol, single 20 mg/kg oral, fed, mean ± SD): 424 ± 547 ng·h/mL
- AUC(0-t) ([3]; AUC0-3, cannabidiol, single 20 mg/kg oral, fasted, mean ± SD): 5.88 ± 3.99 ng·h/mL
- AUC(0-t) ([3]; AUC0-3, cannabidiol, single 20 mg/kg oral, fed, mean ± SD): 535 ± 675 ng·h/mL
- AUC(0-t) ([3]; AUC0-4, cannabidiol, single 20 mg/kg oral, fasted, mean ± SD): 6.62 ± 3.85 ng·h/mL
- AUC(0-t) ([3]; AUC0-4, cannabidiol, single 20 mg/kg oral, fed, mean ± SD): 812 ± 874 ng·h/mL
- AUC(0-t) ([3]; AUC0-6, cannabidiol, single 20 mg/kg oral, fasted, mean ± SD): 12 ± 9.29 ng·h/mL
- AUC(0-t) ([3]; AUC0-6, cannabidiol, single 20 mg/kg oral, fed, mean ± SD): 1090 ± 886 ng·h/mL
- AUC(0-t) ([3]; AUC0-8, cannabidiol, single 20 mg/kg oral, fasted, mean ± SD): 22.9 ± 39.3 ng·h/mL
- AUC(0-t) ([3]; AUC0-8, cannabidiol, single 20 mg/kg oral, fed, mean ± SD): 819 ± 590 ng·h/mL
- AUC(0-t) ([3]; AUC0-12, cannabidiol, single 20 mg/kg oral, fasted, mean ± SD): 14.7 ± 10.2 ng·h/mL
- AUC(0-t) ([3]; AUC0-12, cannabidiol, single 20 mg/kg oral, fed, mean ± SD): 372 ± 338 ng·h/mL
- AUC(0-t) ([3]; AUC0-16, cannabidiol, single 20 mg/kg oral, fasted, mean ± SD): 9.76 ± 4.79 ng·h/mL
- AUC(0-t) ([3]; AUC0-16, cannabidiol, single 20 mg/kg oral, fed, mean ± SD): 112 ± 133 ng·h/mL
- AUC(0-t) ([3]; AUC0-24, cannabidiol, single 20 mg/kg oral, fasted, mean ± SD): 5.45 ± 2.76 ng·h/mL
- AUC(0-t) ([3]; AUC0-24, cannabidiol, single 20 mg/kg oral, fed, mean ± SD): 34.3 ± 11.7 ng·h/mL
- AUC(0-t) ([3]; AUC0-36, cannabidiol, single 20 mg/kg oral, fasted, mean ± SD): 5 ± 3.78 ng·h/mL
- AUC(0-t) ([3]; AUC0-36, cannabidiol, single 20 mg/kg oral, fed, mean ± SD): 20.7 ± 5.11 ng·h/mL
- AUC(0-t) ([3]; AUC0-48, cannabidiol, single 20 mg/kg oral, fasted, mean ± SD): 2.66 ± 2.4 ng·h/mL
- AUC(0-t) ([3]; AUC0-48, cannabidiol, single 20 mg/kg oral, fed, mean ± SD): 15.5 ± 4.31 ng·h/mL
- AUC(0-t) ([3]; AUC0-72, cannabidiol, single 20 mg/kg oral, fasted, mean ± SD): 1.73 ± 1.89 ng·h/mL
- AUC(0-t) ([3]; AUC0-72, cannabidiol, single 20 mg/kg oral, fed, mean ± SD): 10.1 ± 3.42 ng·h/mL
- AUC(0-t) ([3]; AUC0-96, cannabidiol, single 20 mg/kg oral, fasted, mean ± SD): 1.35 ± 1.73 ng·h/mL
- AUC(0-t) ([3]; AUC0-96, cannabidiol, single 20 mg/kg oral, fed, mean ± SD): 7.86 ± 2.44 ng·h/mL
- AUC(0-t) ([3]; AUC0-120, cannabidiol, single 20 mg/kg oral, fasted, mean ± SD): 0.867 ± 1.34 ng·h/mL
- AUC(0-t) ([3]; AUC0-120, cannabidiol, single 20 mg/kg oral, fed, mean ± SD): 6.36 ± 2.24 ng·h/mL
- AUC(0-inf) ([3]; AUC0-inf, cannabidiol, single 20 mg/kg oral dose of cannabidiol solution, fasted, mean): 360 ng·h/mL
- AUC(0-inf) ([3]; AUC0-inf, cannabidiol, single 20 mg/kg oral dose of cannabidiol solution, fed, mean): 10100 ng·h/mL
- AUC(0-t) ([3]; AUC0-t, cannabidiol, single 20 mg/kg oral dose of cannabidiol solution, fasted, mean): 466 ng·h/mL
- AUC(0-t) ([3]; AUC0-t, cannabidiol, single 20 mg/kg oral dose of cannabidiol solution, fed, mean): 9650 ng·h/mL
- Cmax ([3]; Cmax, cannabidiol, single 20 mg/kg oral dose of cannabidiol solution, fasted, mean): 27.3 ng/mL
- Cmax ([3]; Cmax, cannabidiol, single 20 mg/kg oral dose of cannabidiol solution, fed, mean): 1560 ng/mL
- Tmax ([3]; cannabidiol, single 20 mg/kg oral dose of cannabidiol solution, fasted): 12 h
- Tmax ([3]; cannabidiol, single 20 mg/kg oral dose of cannabidiol solution, fed): 6 h
- AUC(0-inf) ([3]; ln(AUC0-inf) Geometric Mean, cannabidiol, 20 mg/kg oral, Fasted, least squares geometric mean, period removed from model): 326 ng·h/mL
- AUC(0-inf) ([3]; ln(AUC0-inf) Geometric Mean, cannabidiol, 20 mg/kg oral, Fed, least squares geometric mean, period removed from model): 9580 ng·h/mL
- AUC(0-t) ([3]; ln(AUC0-t) Geometric Mean, cannabidiol, 20 mg/kg oral, Fasted, least squares geometric mean): 669 ng·h/mL
- AUC(0-t) ([3]; ln(AUC0-t) Geometric Mean, cannabidiol, 20 mg/kg oral, Fed, least squares geometric mean): 9210 ng·h/mL
- Cmax ([3]; ln(Cmax) Geometric Mean, cannabidiol, 20 mg/kg oral, Fasted, least squares geometric mean): 44.5 ng/mL
- Cmax ([3]; ln(Cmax) Geometric Mean, cannabidiol, 20 mg/kg oral, Fed, least squares geometric mean): 1390 ng/mL
- Sc MET N/F (animals protected/tested) ([4]; ED50 Biological Response (Table 57), 150 mg/kg, 2 h, methylcellulose): 1/8
- Sc MET N/F (animals protected/tested) ([4]; ED50 Biological Response (Table 57), 300 mg/kg, 2 h, methylcellulose): 5/8
- Sc MET N/F (animals protected/tested) ([4]; ED50 Biological Response (Table 57), 360 mg/kg, 2 h, methylcellulose): 7/8
- Sc MET N/F (animals protected/tested) ([4]; ED50 Biological Response (Table 59), 120 mg/kg, 2 h, ethanol:polyethoxylated castor oil:PBS): 0/8
- Sc MET N/F (animals protected/tested) ([4]; ED50 Biological Response (Table 59), 160 mg/kg, 2 h, ethanol:polyethoxylated castor oil:PBS): 2/8
- Sc MET N/F (animals protected/tested) ([4]; ED50 Biological Response (Table 59), 220 mg/kg, 2 h, ethanol:polyethoxylated castor oil:PBS): 5/8
- Sc MET N/F (animals protected/tested) ([4]; ED50 Biological Response (Table 59), 260 mg/kg, 2 h, ethanol:polyethoxylated castor oil:PBS): 7/8
- ED50 ([4]; 1:1:18 ethanol:polyethoxlated castor oil:PBS solvent): 199 mg/kg
- ED50 ([4]; methylcellulose solvent): 241 mg/kg
- Sc MET N/F (animals protected/tested) ([4]; Tables 57/58, 200 mg/kg, 2 h, methylcellulose): 3/8
- Sc MET N/F (animals protected/tested) ([4]; Time to Peak Effect (Table 58), 200 mg/kg, 0.25 h, methylcellulose): 0/4
- Sc MET N/F (animals protected/tested) ([4]; Time to Peak Effect (Table 58), 200 mg/kg, 0.5 h, methylcellulose): 0/4
- Sc MET N/F (animals protected/tested) ([4]; Time to Peak Effect (Table 58), 200 mg/kg, 1 h, methylcellulose): 2/8
